Measurements: patent US20140249139A1, “Quinazoline Derivatives” (NOVARTIS AG, priority 2011, published 2014)

Legend:
PI3K alpha = target: T1, PI3K alpha (Homo sapiens, UniProt P42336); assay: Enzymatic PI3K alpha isoform inhibition (lipid kinase activity, Kinase-Glo); format: biochemical; conditions: enzymatic assay
T1 construct: for the p110-a subunit (with a deletion of the first 20 amino acids) are generated; His tag (C); made in house; host or cells: baculovirus BV1075; Tn5 (Trichoplusia ni) or TiniPro insect cells
Experimental: (§1) The components of the assay are added per well as follows:
(§2) IC50 is determined by a four parameter curve fitting routine that comes along with “excel fit”.
(§3) Yet alternatively, for an ATP depletion assay, compounds of the formula I to be tested are dissolved in DMSO and directly distributed into a white 384-well plate at 0.5 μl per well. To start the reaction, 10 μl of 10 nM PI3 kinase and 5 μg/ml 1-alpha-phosphatidylinositol (PI) are added into each well followed by 10 μl of 2 μM ATP. The reaction is performed until approx 50% of the ATP is depleted, and then stopped by the addition of 20 μl of Kinase-Glo solution (Promega Corp., Madison, Wis., USA). The stopped reaction is incubated for 5 minutes and the remaining ATP is then detected via luminescence. IC50 values are then determined.

PI3K delta = target: T2, PI3K delta (Homo sapiens, UniProt O00329); assay: Enzymatic PI3K delta isoform inhibition (lipid kinase activity, Kinase-Glo); format: biochemical; conditions: enzymatic assay
T2 construct: for the full-length p110-d subunit are generated and fused by overlapping PCR; His tag (C); made in house; host or cells: baculovirus BV1060; Tn5 (Trichoplusia ni) or TiniPro insect cells
Experimental: as §1, §2, §3

T1 sequence (P42336 with tags, fused parts or gaps limits assumed, species assumed): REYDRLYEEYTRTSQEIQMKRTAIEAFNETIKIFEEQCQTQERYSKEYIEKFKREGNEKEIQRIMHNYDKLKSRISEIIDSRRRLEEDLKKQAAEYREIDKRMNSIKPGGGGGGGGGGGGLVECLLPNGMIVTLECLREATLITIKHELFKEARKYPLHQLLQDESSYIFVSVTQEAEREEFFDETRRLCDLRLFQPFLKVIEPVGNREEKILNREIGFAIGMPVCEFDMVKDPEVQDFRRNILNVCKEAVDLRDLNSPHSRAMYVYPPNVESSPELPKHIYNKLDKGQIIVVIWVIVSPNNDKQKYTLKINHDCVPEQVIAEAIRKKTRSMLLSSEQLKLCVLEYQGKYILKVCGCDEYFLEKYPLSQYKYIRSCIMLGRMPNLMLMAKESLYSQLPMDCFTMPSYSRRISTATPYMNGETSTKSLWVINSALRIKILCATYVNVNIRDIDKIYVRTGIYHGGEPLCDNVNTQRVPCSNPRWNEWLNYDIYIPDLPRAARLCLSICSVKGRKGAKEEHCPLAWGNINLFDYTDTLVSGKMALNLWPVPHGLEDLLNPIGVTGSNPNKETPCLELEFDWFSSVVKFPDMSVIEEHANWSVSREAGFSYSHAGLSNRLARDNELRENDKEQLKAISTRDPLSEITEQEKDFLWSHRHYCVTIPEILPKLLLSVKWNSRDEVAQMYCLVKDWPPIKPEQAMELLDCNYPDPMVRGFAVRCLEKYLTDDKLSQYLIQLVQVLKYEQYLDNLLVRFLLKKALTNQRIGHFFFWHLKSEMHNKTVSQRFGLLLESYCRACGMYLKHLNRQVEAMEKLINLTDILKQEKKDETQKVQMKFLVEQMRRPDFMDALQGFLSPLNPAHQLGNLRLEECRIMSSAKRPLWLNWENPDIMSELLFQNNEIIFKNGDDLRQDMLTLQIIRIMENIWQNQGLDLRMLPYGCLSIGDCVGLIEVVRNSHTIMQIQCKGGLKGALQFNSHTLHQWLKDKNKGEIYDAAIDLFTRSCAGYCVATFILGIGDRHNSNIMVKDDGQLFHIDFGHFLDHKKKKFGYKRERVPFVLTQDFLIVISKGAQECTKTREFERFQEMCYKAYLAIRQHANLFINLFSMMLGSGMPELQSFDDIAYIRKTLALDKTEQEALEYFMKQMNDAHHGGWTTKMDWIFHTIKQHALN
T2 sequence (O00329 with tags, fused parts or gaps limits assumed, species assumed): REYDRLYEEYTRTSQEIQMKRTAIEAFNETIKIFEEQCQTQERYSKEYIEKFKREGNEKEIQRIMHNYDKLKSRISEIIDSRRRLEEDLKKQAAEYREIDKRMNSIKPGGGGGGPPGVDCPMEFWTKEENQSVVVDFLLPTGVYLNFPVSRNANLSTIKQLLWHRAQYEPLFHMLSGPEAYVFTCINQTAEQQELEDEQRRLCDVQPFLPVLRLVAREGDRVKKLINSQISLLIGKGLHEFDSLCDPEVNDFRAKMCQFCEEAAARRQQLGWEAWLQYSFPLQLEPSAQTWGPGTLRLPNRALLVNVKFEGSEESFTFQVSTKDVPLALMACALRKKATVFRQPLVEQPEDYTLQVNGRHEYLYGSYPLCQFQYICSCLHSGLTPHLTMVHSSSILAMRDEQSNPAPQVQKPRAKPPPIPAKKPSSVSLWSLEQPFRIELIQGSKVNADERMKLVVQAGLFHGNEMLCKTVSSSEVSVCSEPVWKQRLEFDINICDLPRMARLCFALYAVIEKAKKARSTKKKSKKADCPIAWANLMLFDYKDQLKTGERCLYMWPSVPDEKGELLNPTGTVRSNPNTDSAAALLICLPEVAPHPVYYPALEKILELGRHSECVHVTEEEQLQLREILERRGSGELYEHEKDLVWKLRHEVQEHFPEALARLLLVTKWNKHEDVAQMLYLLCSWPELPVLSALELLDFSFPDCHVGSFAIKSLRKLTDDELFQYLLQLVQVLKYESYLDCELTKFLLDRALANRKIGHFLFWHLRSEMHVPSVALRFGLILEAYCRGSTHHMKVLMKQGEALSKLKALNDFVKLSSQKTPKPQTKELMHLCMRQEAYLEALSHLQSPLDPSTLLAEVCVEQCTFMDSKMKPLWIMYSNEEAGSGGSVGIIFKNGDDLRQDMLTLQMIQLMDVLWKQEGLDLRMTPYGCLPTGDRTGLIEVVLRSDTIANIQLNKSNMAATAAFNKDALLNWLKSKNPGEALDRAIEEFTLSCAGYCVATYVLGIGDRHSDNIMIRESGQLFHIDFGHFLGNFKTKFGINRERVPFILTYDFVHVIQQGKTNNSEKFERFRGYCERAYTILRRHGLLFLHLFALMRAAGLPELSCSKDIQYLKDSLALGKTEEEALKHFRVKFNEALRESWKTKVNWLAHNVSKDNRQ

| SMILES | IC50 (PI3K alpha) | IC50 (PI3K delta) |
| --- | --- | --- |
| COc1ncc(-c2ccc3ncnc(-c4cncc(C(=O)N5CCOC(C)(C)C5)c4)c3c2)cc1C#N [Example 62] | 1150 nM | 7 nM |
| CCOc1ncc(-c2ccc3ncnc(-c4cccc(C(=O)N5CCN(C)CC5)c4)c3c2)cc1C(F)(F)F [Example 42, {3-[6-(6-Ethoxy-5-trifluoromethyl-pyridin-3-yl)-quinazolin-4-yl]-phenyl}-(4-methyl-piperazin-1-yl)-methanone] | 152 nM | 6 nM |
| COc1ncc(-c2ccc3ncnc(-c4cncc(C(=O)N5CCOCC5)c4)c3c2)cn1 [Example 70] | 1030 nM | 30 nM |
| CN1CCN(C(=O)c2cccc(-c3ncnc4ccc(-c5ccc(NS(C)(=O)=O)c(C(F)(F)F)c5)cc34)c2)CC1 [Example 48] | 3800 nM | 47.5 nM |
| COc1ncc(-c2ccc3ncnc(-c4cccc(C(=O)N5CCS(=O)(=O)CC5)c4)c3c2)cc1C#N [Example 28] | 418 nM | 9 nM |
| COc1ccc(-c2ccc3ncnc(-c4cc(Cl)cc(C(=O)N5CCN(C(C)=O)CC5)c4)c3c2)cn1 [Example 107, 1-(4-{3-Chloro-5-[6-(6-methoxy-pyridin-3-yl)-quinazolin-4-yl]-benzoyl}-piperazin-1-yl)-ethanone] | 716 nM | 5 nM |
| COc1ccc(-c2ccc3ncnc(-c4cccc(C(=O)N5CCS(=O)(=O)CC5)c4)c3c2)cn1 [Example 93, (1,1-Dioxo-1lambda*6*-thiomorpholin-4-yl)-{3-[6-(6-methoxy-pyridin-3-yl)-quinazolin-4-yl]-phenyl}-methanone] | 120 nM | < 3 nM |
| CCC(=O)N1CCN(C(=O)c2cccc(-c3ncnc4ccc(-c5cnc(OC)c(C#N)c5)cc34)c2)CC1 [Example 96, 2-Methoxy-5-{4-[3-(4-propionyl-piperazine-1-carbonyl)-phenyl]-quinazolin-6-yl}-nicotinonitrile] | 316 nM | 6 nM |
| COc1ccc(-c2ccc3ncnc(-c4ccc(C)c(C(=O)N5CCN(C(C)=O)CC5)c4)c3c2)cn1 [Example 100, 1-(4-{5-[6-(6-Methoxy-pyridin-3-yl)-quinazolin-4-yl]-2-methyl-benzoyl}-piperazin-1-yl)-ethanone] | 188 nM | 5 nM |
| CC1(C)CN(C(=O)c2cccc(-c3ncnc4ccc(-c5ccc(N)nc5)cc34)c2)CCO1 [Example 32] | 174 nM | 7 nM |
| COc1ccc(-c2ccc3ncnc(-c4cncc(C(=O)N5CCOCC5)c4)c3c2)cc1C(F)(F)F [Example 82, {5-[6-(4-Methoxy-3-trifluoromethyl-phenyl)-quinazolin-4-yl]-pyridin-3-yl}-morpholin-4-yl-methanone] | 1330 nM | 21.5 nM |
| COc1ccc(-c2ccc3ncnc(-c4cccc(C(=O)N5CCNC[C@H]5C)c4)c3c2)cn1 [Example 97, {3-[6-(6-Methoxy-pyridin-3-yl)-quinazolin-4-yl]-phenyl}-((R)-2-methyl-piperazin-1-yl)-methanone] | 463 nM | 23 nM |
| COc1ccc(-c2ccc3ncnc(-c4cncc(C(=O)N5CCN(C(C)=O)CC5)c4)c3c2)cn1 [Example 52] | 189 nM | 7.5 nM |
| COc1ccc(-c2ccc3ncnc(-c4cccc(C(=O)N5CCN(C)C(C)(C)C5)c4)c3c2)cn1 [Example 89, {3-[6-(6-Methoxy-pyridin-3-yl)-quinazolin-4-yl]-phenyl}-(3,3,4-trimethyl-piperazin-1-yl)-methanone] | 99 nM | 4 nM |
| CN1CCN(C(=O)c2cccc(-c3ncnc4ccc(-c5cnc(N(C)C)nc5)cc34)c2)CC1 [Example 11] | 1070 nM | 28 nM |
| COc1ccc(-c2ccc3ncnc(-c4cccc(C(=O)N5CCN(C)CC5)c4)c3c2)cc1C(=O)N(C)C [Example 49, 2-Methoxy-N,N-dimethyl-5-{4-[3-(4-methyl-piperazine-1-carbonyl)-phenyl]-quinazolin-6-yl}-benzamide] | 8950 nM | 35.5 nM |
| COc1ccc(-c2ccc3ncnc(-c4cncc(C(=O)N5C[C@@H]6C[C@H]5CN6C)c4)c3c2)cn1 [Example 77, {5-[6-(6-Methoxy-pyridin-3-yl)-quinazolin-4-yl]-pyridin-3-yl}-((1S,4S)-5-methyl-2,5-diaza-bicyclo[2.2.1]hept-2-yl)-methanone] | 573 nM | 14 nM |
| COc1ncc(-c2ccc3ncnc(-c4cncc(C(=O)N5CCN(C(C)=O)CC5)c4)c3c2)cc1F [Example 51] | 118 nM | 3.5 nM |
| COc1ccc(-c2ccc3ncnc(-c4ccc(C)c(C(=O)N5CCN(C(C)C)CC5)c4)c3c2)cn1 [Example 116, (4-Isopropyl-piperazin-1-yl)-{5-[6-(6-methoxy-pyridin-3-yl)-quinazolin-4-yl]-2-methyl-phenyl}-methanone] | 306 nM | 14 nM |
| COc1ccc(-c2ccc3ncnc(-c4cccc(C(=O)N5CC6CC5CN6)c4)c3c2)cn1 (stereo not drawn) [Example 38, (2,5-Diaza-bicyclo[2.2.1]hept-2-yl)-{3-[6-(6-methoxy-pyridin-3-yl)-quinazolin-4-yl]-phenyl}-methanone] | 372 nM | 7 nM |

| SMILES | IC50 (PI3K alpha) | IC50 (PI3K delta) |
| --- | --- | --- |
| COc1ccc(-c2ccc3ncnc(-c4cncc(C(=O)N5CC(C)NC(C)C5)c4)c3c2)cc1C(F)(F)F (stereo not drawn) [Example 80, (3,5-Dimethyl-piperazin-1-yl)-{5-[6-(4-methoxy-3-trifluoromethyl-phenyl)-quinazolin-4-yl]-pyridin-3-yl}-methanone] | 717 nM | 10.5 nM |
| CN1CCN(C(=O)c2cccc(-c3ncnc4ccc(-c5ccc(N(C)C)nc5)cc34)c2)CC1 [Example 17] | 352 nM | 6.38 nM |
| COc1ncc(-c2ccc3ncnc(-c4cncc(C(=O)N5CCOC(C)(C)C5)c4)c3c2)cc1C(F)(F)F [Example 61] | 390 nM | 3 nM |
| COc1ncc(-c2ccc3ncnc(-c4cncc(C(=O)N5CCN(C)CC5)c4)c3c2)cc1F [Example 55] | 193 nM | 9.25 nM |
| CN1CCN(C(=O)c2cncc(-c3ncnc4ccc(-c5cnc(N)nc5)cc34)c2)CC1 [Example 60] | 657 nM | 19.5 nM |
| CC(=O)N1CCN(C(=O)c2cccc(-c3ncnc4ccc(-c5cnc(N)nc5)cc34)c2)CC1 [Example 8] | 268 nM | 9.5 nM |
| CC(=O)N1CCN(C(=O)c2cncc(-c3ncnc4ccc(-c5cncc(C(F)(F)F)c5)cc34)c2)CC1 [Example 50, 1-(4-{5-[6-(5-Trifluoromethyl-pyridin-3-yl)-quinazolin-4-yl]-pyridine-3-carbonyl}-piperazin-1-yl)-ethanone] | 319 nM | 10.5 nM |
| COc1ccc(-c2ccc3ncnc(-c4cccc(C(=O)N5CCNC[C@@H]5C)c4)c3c2)cn1 [Example 98, {3-[6-(6-Methoxy-pyridin-3-yl)-quinazolin-4-yl]-phenyl}-((S)-2-methyl-piperazin-1-yl)-methanone] | 102 nM | 3.5 nM |
| COc1ncc(-c2ccc3ncnc(-c4cc(F)cc(C(=O)N5CCN(C(C)=O)CC5)c4)c3c2)cn1 [Example 111, 1-(4-{3-Fluoro-5-[6-(2-methoxy-pyrimidin-5-yl)-quinazolin-4-yl]-benzoyl}-piperazin-1-yl)-ethanone] | 1360 nM | 10 nM |
| COc1ncc(-c2ccc3ncnc(-c4cncc(C(=O)N5CCN(C)C(C)(C)C5)c4)c3c2)cc1C(F)(F)F [Example 74] | 150 nM | 5 nM |
| COc1ncc(-c2ccc3ncnc(-c4cncc(C(=O)N5CCS(=O)(=O)CC5)c4)c3c2)cc1C#N [Example 71] | 550 nM | 8 nM |
| COc1ncc(-c2ccc3ncnc(-c4cccc(C(=O)N5CCOCC5)c4)c3c2)cc1C#N [Example 30] | 387 nM | 6.67 nM |
| COc1ncc(-c2ccc3ncnc(-c4ccc(C)c(C(=O)N5CCN(C(C)=O)CC5)c4)c3c2)cn1 [Example 102, 1-(4-{5-[6-(2-Methoxy-pyrimidin-5-yl)-quinazolin-4-yl]-2-methyl-benzoyl}-piperazin-1-yl)-ethanone] | 770 nM | 11 nM |
| COc1ncc(-c2ccc3ncnc(-c4cccc(C(=O)N5CCOC(C)(C)C5)c4)c3c2)cc1C#N [Example 31] | 631 nM | 6 nM |
| COc1ncc(-c2ccc3ncnc(-c4cccc(C(=O)N5C[C@@H]6C[C@H]5CN6C)c4)c3c2)cc1C(F)(F)F [Example 29] | 75 nM | 3 nM |
| CC1(C)CN(C(=O)c2cncc(-c3ncnc4ccc(-c5cncc(S(C)(=O)=O)c5)cc34)c2)CCO1 [Example 64] | 583 nM | 11 nM |
| Cc1ccc(-c2ccc3ncnc(-c4cccc(C(=O)N5CCN(C)CC5)c4)c3c2)cc1S(C)(=O)=O [Example 43] | 374 nM | 11 nM |
| COc1ncc(-c2ccc3ncnc(-c4cc(C(=O)N5CCN(C(C)=O)CC5)cc(C(F)(F)F)c4)c3c2)cn1 [Example 104, 1-(4-{3-[6-(2-Methoxy-pyrimidin-5-yl)-quinazolin-4-yl]-5-trifluoromethyl-benzoyl}-piperazin-1-yl)-ethanone] | 3290 nM | 38 nM |
| COc1ccc(-c2ccc3ncnc(-c4cccc(C(=O)N5C[C@@H]6C[C@H]5CN6)c4)c3c2)cc1C(F)(F)F [Example 39] | 770 nM | 11.5 nM |
